According to US9145391B2, “Bipyridylaminopyridines as Syk inhibitors” (Merck Sharp & Dohme Corp., priority 2011, dated 2015):

What was measured:
[1] = target: recombinant human GST-Syk (Homo sapiens (Human), UniProt P43405); assay: Homogeneous Time-Resolved Fluorescence (HTRF) assay for the recombinant human Syk enzyme; assay type: biochemical; details: recombinant human GST-Syk 5 pM, ATP 25 μM, read-out: rhSyk IC50
How it was run: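 Recombinant GST-hSyk fusion protein kinase activity was read by HTRF. Reactions were started with biotinylated substrate peptide at 250 nM final, Mg 5 mM final and ATP 25 μM final. Potency derived from inhibition of substrate phosphorylation.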

[2] = Hydrolysis assay: hydrolysis of prodrug to parent species in human liver S9; assay type: in vitro ADME; details: human liver S9 1 mg protein/mL, prodrug 10 μM, 37° C., pH 7.4, 1 mM NADPH; for half-life at 10 μM: read-out: Half-life (min) of the conversion of the prodrug to the carboxylic acid
Protocol: Hydrolysis Assay: Analysis of Hydrolysis of Prodrug to Parent Species
The stability of 8 different prodrugs was investigated in human liver S9 microsomes. Incubations of prodrugs (10 μM) with liver S9 (1 mg protein/mL) were carried out at 37° C. in a phosphate buffer, pH 7.4, containing 1 mM NADPH. Control incubations contained BSA (1.1 mg/mL) instead of liver S9 microsomes. Aliquots were removed at 0, 5, 15, 30, 60 and 120 min, treated with 4 volumes of acetonitrile containing 2% formic acid and an internal standard, and centrifuged. The supernatants were analyzed by LC-MS/MS for prodrug disappearance and appearance of active drug. The half-life of the prodrug was calculated from the % prodrug remaining at different time points calculated from on the peak area ratio relative to t=0. The amount of active drug generated at the different time points was determined using a standard curve.

Syk kinase [3] = target: T1, Syk kinase (Homo sapiens (Human), UniProt P43405); details: phase II clinical trial, allergic rhinitis; cited from earlier work
Syk kinase [4] = target: T1, Syk kinase; details: dosed intranasally, allergic rhinitis; cited from earlier work

| Structure (SMILES) | IC50 [1] | Half-life (min) of the conversion of the prodrug to the carboxylic acid [2] | half-life at 10 μM [2] | efficacy versus placebo (Syk kinase [3]) | PGD2 change (Syk kinase [4]) | clinical safety (Syk kinase [4]) |
| --- | --- | --- | --- | --- | --- | --- |
| Cc1cc(Nc2cc(C(F)F)ccn2)nc(-c2ccc(C(C)(O)[C@H]3CC[C@H](C(=O)OCC(=O)N(C)C)CC3)nc2)c1 (single isomer, unassigned) [Example 19-18, 2-(dimethylamino)-2-oxoethyl trans-4-[(1R or 1S)-1-(6-{[4-(difluoromethyl)pyridin-2-yl]amino}-4-methyl-2,3′-bipyridin-6′-yl)-1-hydroxyethyl] cyclohexanecarboxylate] | 1.2 nM | 6.2 min | – | – | – | – |
| Cc1cc(Nc2cc(C(F)F)ccn2)nc(-c2ccc(C(C)(O)[C@H]3CC[C@H](C(=O)OCCN4CCOCC4)CC3)nc2)c1 (single isomer, unassigned) [Example 19-19, 2-{morpholin-4-yl)ethyl trans-4-[(1R or 1S)-1-(6-{[4-(difluoromethyl)pyridin-2-yl]amino}-4-methyl-2,3′-bipyridin-6′-yl)-1-hydroxyethyl] cyclohexanecarboxylate] | 8.7 nM | 15 min | – | – | – | – |
| CCOC(=O)OCOC(=O)[C@H]1CC[C@H](C(C)(O)c2ccc(-c3cc(C)cc(Nc4cc(C(F)F)ccn4)n3)cn2)CC1 (single isomer, unassigned) [Example 20, [(Ethoxycarbonyl)oxy]methyl trans-4-[(1R or 1S)-1-(6-{[4-(difluoromethyl)pyridin-2-yl]amino}-4-methyl-2,3′-bipyridin-6′-yl)-1-hydroxyethyl]cyclohexanecarboxylate] | 14 nM | – | 3 min | – | – | – |
| CC(=O)OCOC(=O)[C@H]1CC[C@H](C(C)(O)c2ccc(-c3cc(C)cc(Nc4cc(C(F)F)ccn4)n3)cn2)CC1 (single isomer, unassigned) [Example 21, (Acetyloxy)methyl trans-4-[(1R or 1S)-1-(6-{[4-(difluoromethyl)pyridin-2-yl]amino}-4-methyl-2,3′-bipyridin-6′-yl)-1-hydroxyethyl]cyclohexanecarboxylate] | 11 nM | – | 3.3 min | – | – | – |
| COC(=O)[C@H]1CC[C@H](C(C)(O)c2ccc(-c3cc(C)cc(Nc4cc(C(F)F)ccn4)n3)cn2)CC1 (single isomer, unassigned) [Example 22, Methyl trans-4-[(1R or 1S)-1-(6-{[4-(difluoromethyl)pyridin-2-yl]amino}-4-methyl-2,3′-bipyridin-6′-yl)-1-hydroxyethyl]cyclohexanecarboxylate] | 8 nM | – | 4.6 min | – | – | – |
| Oc1cccc(Nc2ncc(F)c(Nc3cccc(O)c3)n2)c1 [Example R112] | – | – | – | lack of efficacy versus placebo | statistically significant decrease in PGD2 | safe across a range of indicators |
